US20150125432A1, “Human Persistent Fetal Vasculature Neural Progenitors for Transplantation in the Inner Retina” (The Schepens Eye Research Institute, Inc., priority 2012, published 2015)

Assays:
NPPFV cells = assay: Ca2+ imaging (Fura-2) of NPPFV cells after stimulation with neurotransmitters; assay type: cell-based, human; conditions: for percentage of responding NPPFV cells: neurotransmitter 0.1 mM, mean±SEM; for elicited [Ca2+]i of responding NPPFV cells: undifferentiated and differentiated NPPFV cells, result in words
Method: Cells were incubated at 37° C. for 30 min in X-vivo medium (containing 3% FBS, 5 μM Fura-2 tetra-acetoxymethyl ester, 8 μM pluronic acid F127 and 250 μM sulfinpyrazone). Cells were washed in modified Mg^2+-free Hank's balanced salt solution (HBSS, 2.6 mM CaCl2, 15 mM HEPES [pH 7.4] and 250 μM sulfinpyrazone). Five types of neurotransmitters, γ-aminobutyric acid (GABA), glutamate (Glu), glycine (Gly), dopamine (Dopa) and acetylcholine (Ach) were dissolved in modified HBSS at a concentration of 0.1 mM. The largest dynamic range for Ca^2+-dependent fluorescence signals is obtained by excitation at 340 nm and 380 nm, and detecting their ratio of emission fluorescence intensities at around 510 nm. From this ratio, the concentration of intracellular Ca^2+ ([Ca^2+]i) can be estimated, using dissociation constants that are derived from calibration curves. By using the ratio of fluorescence intensities produced by excitation at two wave lengths, factors such as uneven dye distribution and photo bleaching are minimized ([…] Ratio Imaging System, Cincinnati, Ohio). The change of [Ca^2+]i was calculated from the difference between the peak Ca^2+ concentration evoked by each agonist and the control value of HBSS (before the addition of agonist). At least 80 cells were selected for analyzing the change of [Ca^2+]i evoked by each agonist, averaged over three repetitions.

B6 mouse RGCs [1] = assay: Neurite outgrowth assay of RGCs in co-culture with transfected hNPPFV cells; assay type: cell-based; conditions: added to hNPPFV^igf-1-tdTomato co-culture; H-1356 40 μg/ml, NBI-31772 10 μM, IGF-1R antibody 1:250; words
Method: (§1) P0 B6 mice were euthanized with CO2 and the retinas were dissected out from the eyecups in cold Hank's buffer (Life Technologies) containing 1× Penicillin-Streptomycin-Glutamine (Life Technologies). Retinas were digested in 20 U/ml papain solution containing 100 U/ml DNaseI at 37° C. for 5-15 min; the reaction was stopped with 5 mg/ml ovomucoid protease inhibitor containing 5 mg/ml albumin. Retinas were gently triturated to obtain a single cell suspension, and cells were washed once and re-suspended in 800 μl washing buffer (0.5% BSA, 2 mM EDTA in 1×PBS). RGCs were isolated using Thy1.2 (CD90.2) microbeads and MACS® magnetic separation system (Miltenyi Biotech) following the manufacturer's instructions. […]
(§2) Co-culture inserts and culture media were removed after 3 days; RGCs were washed with 1×PBS and stained with CalceinAM and EthD-1 (LIVE/DEAD® Viability/Cytotoxicity kit, Life Technologies) for 40 min at room temperature. Images of 4-6 view fields were randomly selected throughout each well under an Olympus inverted fluorescence microscope. Live and dead cells were counted using ImageJ 1.46 (National Institutes of Health, Bethesda, Md.) and survival rates were calculated as live cells/live+dead cells×100%. […] Images were acquired with an Olympus inverted fluorescence microscope. Neurite lengths were measured using ImageJ.

B6 mouse RGCs [2] = assay: RGC survival assay (LIVE/DEAD) in co-culture with transfected hNPPFV cells; assay type: cell-based; conditions: added to hNPPFV^igf-1-tdTomato co-culture; H-1356 40 μg/ml, NBI-31772 10 μM, IGF-1R antibody 1:250; words
Method: as §1, §2

[3] = tested on: retina of adult C57BL/6 mice; assay: Inner retinal (intravitreal) transplantation into adult C57BL/6 mice; assay type: in vivo, mouse; conditions: intraperitoneal RA 2 mg/kg·day, 3 weeks; result in words
Text: For studying their potential for inner retinal transplantation, NPPFV cells or hRPCs were intravitreally injected to 20 and 10 C57BL/6 mice, respectively. Animals were maintained in standard animal facility. To trace the transplanted cells, NPPFV cells and hRPCs were infected with an AAV2 or retrovirus vector harboring EGFP (HGTI, Boston, Mass.) following the instructions of each transfection kit, respectively. Mice (4-6 weeks of age) were deeply anesthetized with an intraperitoneal injection of ketamine (120 mg/kg) and xylazine (20 mg/kg) and pupils were dilated with 0.5% topical tropicamide. Dissociated GFP-positive cells (1×10^5 cells/2 μl) were suspended in HBSS […] of the eye through a glass micropipette connected to a 10 μl Hamilton syringe via polyethylene tubing. Sham-injected mice received HBSS without cells. All experimental animals received injection in one eye and the other eye was used as an untreated control. […] Anti-GFP antibody (1:100, ABCAM, USA) was used to enhance the fluorescence of prelabled-GFP, while anti-β-III-tubulin (1:500, Sigma, USA), anti-GFAP (1:300, Sigma, USA) and anti-synaptophysin (1:100, DAKO, USA) antibodies helped to assess the differentiation of the transplanted cells. […] Every 10th serial section was counted, measuring […] in thickness as to avoid redundancy of cell counts.

[4] = target: IGF-1 receptor on B6 mouse retinal ganglion cells (mouse) (UniProt Q60751); assay: cell-based or functional assay
Chain of UniProt Q60751 (Q60751 31-1373): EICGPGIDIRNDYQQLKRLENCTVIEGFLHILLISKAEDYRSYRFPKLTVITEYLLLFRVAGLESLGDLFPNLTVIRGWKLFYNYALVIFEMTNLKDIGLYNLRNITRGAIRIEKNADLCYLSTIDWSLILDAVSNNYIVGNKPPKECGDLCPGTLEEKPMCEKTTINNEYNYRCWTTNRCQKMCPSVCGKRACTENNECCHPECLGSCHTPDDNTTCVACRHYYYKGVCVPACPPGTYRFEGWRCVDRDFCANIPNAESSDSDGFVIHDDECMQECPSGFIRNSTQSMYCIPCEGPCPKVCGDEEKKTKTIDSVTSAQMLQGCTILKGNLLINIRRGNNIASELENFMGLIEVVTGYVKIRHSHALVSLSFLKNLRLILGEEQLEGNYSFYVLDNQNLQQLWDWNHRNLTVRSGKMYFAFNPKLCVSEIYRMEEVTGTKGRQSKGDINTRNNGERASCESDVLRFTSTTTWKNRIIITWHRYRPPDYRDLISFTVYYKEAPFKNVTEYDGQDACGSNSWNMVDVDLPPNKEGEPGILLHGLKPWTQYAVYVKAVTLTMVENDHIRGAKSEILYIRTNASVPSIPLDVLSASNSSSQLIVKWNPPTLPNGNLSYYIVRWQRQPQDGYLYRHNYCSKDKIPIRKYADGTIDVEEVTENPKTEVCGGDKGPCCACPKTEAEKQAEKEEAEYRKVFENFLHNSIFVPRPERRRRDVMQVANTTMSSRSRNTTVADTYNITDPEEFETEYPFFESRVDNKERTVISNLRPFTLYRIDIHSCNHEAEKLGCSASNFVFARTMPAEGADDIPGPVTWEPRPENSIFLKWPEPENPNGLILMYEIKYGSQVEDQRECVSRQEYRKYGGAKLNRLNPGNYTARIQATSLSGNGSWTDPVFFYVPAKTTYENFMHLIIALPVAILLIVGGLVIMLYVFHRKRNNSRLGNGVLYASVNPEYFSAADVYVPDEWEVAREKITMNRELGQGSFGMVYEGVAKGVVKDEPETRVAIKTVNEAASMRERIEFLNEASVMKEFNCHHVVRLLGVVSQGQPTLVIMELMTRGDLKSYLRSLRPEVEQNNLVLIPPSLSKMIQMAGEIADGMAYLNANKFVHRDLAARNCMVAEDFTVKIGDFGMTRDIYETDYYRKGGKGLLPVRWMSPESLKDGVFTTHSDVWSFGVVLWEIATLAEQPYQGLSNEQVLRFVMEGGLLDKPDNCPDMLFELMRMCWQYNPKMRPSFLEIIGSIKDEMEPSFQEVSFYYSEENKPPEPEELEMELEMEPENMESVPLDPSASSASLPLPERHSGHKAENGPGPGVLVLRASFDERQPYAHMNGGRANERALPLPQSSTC

Molecule | percentage of responding NPPFV cells (NPPFV cells; differentiated NPPFV cells) [%] | percentage of responding NPPFV cells (NPPFV cells; undifferentiated NPPFV cells) [%] | elicited [Ca2+]i of responding NPPFV cells (NPPFV cells) | other results
CC(=O)OCC[N+](C)(C)C [Ach, acetylcholine] | 8.23±5.41 | 10.96±8.12 | – | –
NCCc1ccc(O)c(O)c1 [Dopa, dopamine] | 7.89±9.18 | 6.41±7.14 | quite low | –
NCCCC(=O)O [GABA, γ-aminobutyric acid] | 12.99±4.86 | 14.94±11.73 | quite low | –
N[C@@H](CCC(=O)O)C(=O)O [Glu, glutamate] | 87.88±4.97 | 48.98±11.67 | significant increase | –
NCC(=O)O [Gly, glycine] | 21.05±9.72 | 16.67±10.62 | quite low | –
O=C(O)c1cc2cc(O)c(O)cc2c(C(=O)c2ccc(O)c(O)c2)n1 [NBI-31772] | – | – | – | effect on IGF-1-tdTomato-mediated neurite outgrowth (B6 mouse RGCs [1]): completely eliminated the effects; effect on IGF-1-tdTomato-mediated RGC survival (B6 mouse RGCs [2]): completely eliminated the effects
CC1=C(/C=C/C(C)=C/C=C/C(C)=C/C(=O)O)C(C)(C)CCC1 [RA, all-trans-retinoic acid] | – | – | – | differentiation of engrafted NPPFV cells into retinal ganglion-like neurons [3]: significantly increases the differentiation of engrafts into retinal ganglion-like mature neurons
IGF-1-tdTomato fusion protein (from UniProt P05017 49-118) (ligand) | – | – | – | average neurite length of RGCs co-cultured with hNPPFV^igf-1-tdTomato cells [4]: 93 µm; neurites per RGC co-cultured with hNPPFV^igf-1-tdTomato cells (neurites/cell) [4]: 2; survival rate of RGCs co-cultured with hNPPFV^igf-1-tdTomato cells [4]: 22%
